From patent publication US20250295681A1, “CANDIDA ANTIFUNGAL COMPOSITION COMPRISING LIPOTEICHOIC ACID” (SEOUL NATIONAL UNIVERSITY R&DB FOUNDATION, priority 2022, published 2025) come the findings set out here.

The assay has as its system C. albicans SC5314. The assay can be described thus: Surface adhesion of C. albicans with simultaneous LreLTA and Hsp70 inhibitor VER-155008, crystal violet staining. The format is cell-based, Candida albicans. Particulars: SC5314 1×10^4 CFU/mL; LreLTA 30 μg/mL plus VER-155008 1, 10, 50 and 100 μM simultaneously; 24 hours; FIG. 4. The protocol:
According to previous research, Hsp70 is known to play a role in controlling overall virulence factors and drug resistance in C. albicans, and thus, the inventors of the present disclosure conducted experiments by utilizing VER-155008, which is an Hsp70 inhibitor.
In order to determine the effect of VER-155008 on reducing C. albicans surface adhesion by LreLTA, C. albicans SC5314 strain was cultured in YPD medium and prepared at 1×10^4 CFU/mL, and LreLTA at a single concentration of 30 μg/mL and VER-155008 at concentrations of 1, 10, 50 and 100 μM were simultaneously treated. After culturing for 24 hours, the degree of adhesion maintenance to the surface was compared by 0.1% crystal violet staining.

Each structure is given as a SMILES string.

Take `N#Cc1ccc(COC[C@H]2O[C@@H](n3c(NCc4ccc(Cl)c(Cl)c4)nc4c(N)ncnc43)[C@H](O)[C@@H]2O)cc1` [VER-155008]: the “effect on the surface adhesion reducing efficacy of LreLTA” value is on record as “the efficacy of reducing the surface adhesion of LreLTA was decreased”.
